The values below come from US20160244437A1, “SUBSTITUTED PHENYLALANINE DERIVATIVES” (BAYER PHARMA AKTIENGESELLSCHAFT, priority 2013, published 2016).

Structures can show the parent of a compound that is named as a salt.

The target in one assay is T1, human factor XIa (Homo sapiens, UniProt P03951).
T1 construct: purchased Kordia
In words: Measurement of FXIa inhibition (fluorogenic peptide substrate Boc-Glu(OBzl)-Ala-Arg-AMC). The note with it: factor XIa from Kordia 0.45 nM, 15 min pre-incubation, 30 min at 22° C., fluorescence. Type of assay: biochemical.

The next assay deals with human and animal plasma. In words: Determination of anticoagulatory activity: activated partial thromboplastin time (aPTT) in plasma. The following applies: concentration of test substance which brings about a 1.5-fold extension of the aPTT; plasma in vitro, C.K. Prest kit. The procedure, abridged:
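Citrated plasma (human, mouse, rat, rabbit, pig, dog) incubated with varying compound concentrations and cephalin/kaolin PTT reagent for 3 minutes at 37° C.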

T1 sequence (P03951 388-625 limits assumed): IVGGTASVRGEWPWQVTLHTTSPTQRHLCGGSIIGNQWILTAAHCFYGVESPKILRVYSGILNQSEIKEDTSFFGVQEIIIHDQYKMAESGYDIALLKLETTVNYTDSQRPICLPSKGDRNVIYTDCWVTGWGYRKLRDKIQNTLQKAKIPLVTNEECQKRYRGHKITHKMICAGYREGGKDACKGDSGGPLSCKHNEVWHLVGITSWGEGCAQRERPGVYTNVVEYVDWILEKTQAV
T1 sequence (P03951 19-387 partner limits assumed): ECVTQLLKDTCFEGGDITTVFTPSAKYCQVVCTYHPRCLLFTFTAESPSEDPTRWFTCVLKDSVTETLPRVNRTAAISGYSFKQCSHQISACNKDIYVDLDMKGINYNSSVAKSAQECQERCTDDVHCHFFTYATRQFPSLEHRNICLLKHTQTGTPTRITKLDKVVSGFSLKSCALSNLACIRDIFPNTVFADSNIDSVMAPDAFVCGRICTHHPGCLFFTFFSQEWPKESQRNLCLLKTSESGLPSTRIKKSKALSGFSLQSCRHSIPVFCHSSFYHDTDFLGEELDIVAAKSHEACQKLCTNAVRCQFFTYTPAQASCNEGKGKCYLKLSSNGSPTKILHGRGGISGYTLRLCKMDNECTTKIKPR

What is called IC50 is the midpoint of a concentration-inhibition curve. Read a high IC50 as lower potency. `Cc1ccc2[nH]ncc2c1-c1cccc(C[C@H](NC(=O)[C@H]2CC[C@H](CN)CC2)C(=O)Nc2ccc(-c3nnn[nH]3)cc2)c1` [Example 83, N-alpha-{[trans-4-(Aminomethyl)cyclohexyl]carbonyl}-3-(5-methyl-1H-indazol-4-yl)-N-[4-(1H-tetrazol-5-yl)phenyl]-L-phenylalaninamide hydrochloride] came in with an IC50 against human factor XIa of 1.3 nM. In the assay on human and animal plasma, this compound gave an aPTT of 0.17 µmol/L.

Compound `Cc1ccc(S(=O)(=O)N(C)C)cc1-c1cccc(C[C@H](NC(=O)[C@H]2CC[C@H](CN)CC2)C(=O)Nc2ccc(-c3nnn[nH]3)cc2)c1` [Example 4, trans-4-(Aminomethyl)-N-[(2S)-3-[5′-(dimethylsulphamoyl)-2′-methylbiphenyl-3-yl]-1-oxo-1-{[4-(1H-tetrazol-5-yl)phenyl]amino}propan-2-yl]cyclohexanecarboxamide hydrochloride] displayed an IC50 on human factor XIa of 1.5 nM. The aPTT in the assay with human and animal plasma came out at 0.21 µmol/L.

As for `COCCOCCOCCNC(=O)c1ccc(-c2cccc(C[C@H](NC(=O)[C@H]3CC[C@H](CN)CC3)C(=O)Nc3ccc(-c4nnn[nH]4)cc3)c2)c(C)c1` [Example 22, 3′-[(2S)-2-({[trans-4-(Aminomethyl)cyclohexyl]carbonyl}amino)-3-oxo-3-{[4-(1H-tetrazol-5-yl)phenyl]amino}propyl]-N-{2-[2-(2-methoxyethoxy)ethoxy]ethyl}-2-methylbiphenyl-4-carboxamide hydrochloride], half-maximal inhibition against human factor XIa (IC50) required 2.4 nM. In the assay on human and animal plasma, this compound had an aPTT of 0.34 µmol/L.

Regarding `CON(C)C(=O)c1ccc(F)c(-c2cccc(C[C@H](NC(=O)[C@H]3CC[C@H](CN)CC3)C(=O)Nc3ccc(-c4nnn[nH]4)cc3)c2)c1` [Example 45, 3′-[(2S)-2-({[trans-4-(Aminomethyl)cyclohexyl]carbonyl}amino)-3-oxo-3-{[4-(1H-tetrazol-5-yl)phenyl]amino}propyl]-6-fluoro-N-methoxy-N-methylbiphenyl-3-carboxamide hydrochloride], at human factor XIa, half-maximal inhibition (IC50) was put at 5.8 nM. The compound also yielded an aPTT with human and animal plasma of 0.3 µmol/L.

The compound `CN1CCN(C(=O)c2ccc(-c3cccc(C[C@H](NC(=O)[C@H]4CC[C@H](CN)CC4)C(=O)Nc4ccc(-c5nnn[nH]5)cc4)c3)cc2)CC1` [Example 46, trans-4-(Aminomethyl)-N-[(2S)-3-{4′-[(4-methylpiperazin-1-yl)carbonyl]biphenyl-3-yl}-1-oxo-1-{[4-(1H-tetrazol-5-yl)phenyl]amino}propan-2-yl]cyclohexanecarboxamide hydrochloride] showed an IC50 at human factor XIa of 7.9 nM. The same compound had an aPTT in the assay with human and animal plasma of 0.32 µmol/L.

With `COCc1nnc(-c2ccc(NC(=O)[C@H](Cc3cccc(-c4cccc5ncccc45)c3)NC(=O)[C@H]3CC[C@H](CN)CC3)cc2)[nH]1` [Example 105, N-alpha-{[trans-4-(Aminomethyl)cyclohexyl]carbonyl}-3-quinolin-5-yl-N-{4-[5-(methoxymethyl)-4H-1,2,4-triazol-3-yl]phenyl}-L-phenylalaninamide hydrochloride], the IC50 at human factor XIa came to 13 nM. This compound registered an aPTT in the assay on human and animal plasma of 0.14 µmol/L.
